{"source": "PubChem BioAssay (NCI)", "assay_in_all_cases": "NCI-60 cell line screen, 48 h", "key": {"A549 NSCLC": {"test_system": "A549 NSCLC"}, "CCRF-CEM leukemia": {"test_system": "CCRF-CEM leukemia"}, "COLO 205 colon": {"test_system": "COLO 205 colon"}, "M14 melanoma": {"test_system": "M14 melanoma"}, "NCI-H460 lung": {"test_system": "NCI-H460 lung"}, "OVCAR-8 ovarian": {"test_system": "OVCAR-8 ovarian"}, "PC-3 prostate": {"test_system": "PC-3 prostate"}, "SF-268 CNS": {"test_system": "SF-268 CNS"}, "SK-MEL-28 melanoma": {"test_system": "SK-MEL-28 melanoma"}, "SNB-75 CNS": {"test_system": "SNB-75 CNS"}}, "note": "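Method: 48-hour compound exposure of cells in 96-well plates, five concentrations, linear interpolation of endpoints. GI50 = concentration required for 50% inhibition of growth. At the TGI there is no net growth.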"}
{"smiles": "O=C(Nc1ccc(Br)cc1F)c1cc(Cl)ccc1O", "values": [{"measurement": "GI50", "setting": "A549 NSCLC", "value": 2780, "unit": "nM"}, {"measurement": "TGI", "setting": "A549 NSCLC", "value": "> 100", "unit": "µM"}, {"measurement": "GI50", "setting": "CCRF-CEM leukemia", "value": 2080, "unit": "nM"}, {"measurement": "TGI", "setting": "CCRF-CEM leukemia", "value": 7.63, "unit": "µM"}, {"measurement": "GI50", "setting": "COLO 205 colon", "value": 2.74, "unit": "µM"}, {"measurement": "TGI", "setting": "COLO 205 colon", "value": 8.2, "unit": "µM"}, {"measurement": "GI50", "setting": "M14 melanoma", "value": 585, "unit": "nM"}, {"measurement": "TGI", "setting": "M14 melanoma", "value": 3.58, "unit": "µM"}, {"measurement": "GI50", "setting": "NCI-H460 lung", "value": 487, "unit": "nM"}, {"measurement": "TGI", "setting": "NCI-H460 lung", "value": "> 66.5", "unit": "µM"}, {"measurement": "GI50", "setting": "OVCAR-8 ovarian", "value": 1060, "unit": "nM"}, {"measurement": "TGI", "setting": "OVCAR-8 ovarian", "value": 12.8, "unit": "µM"}, {"measurement": "GI50", "setting": "PC-3 prostate", "value": 1870, "unit": "nM"}, {"measurement": "TGI", "setting": "PC-3 prostate", "value": 6.68, "unit": "µM"}, {"measurement": "GI50", "setting": "SF-268 CNS", "value": 676, "unit": "nM"}, {"measurement": "TGI", "setting": "SF-268 CNS", "value": 9.96, "unit": "µM"}, {"measurement": "GI50", "setting": "SK-MEL-28 melanoma", "value": 399, "unit": "nM"}, {"measurement": "TGI", "setting": "SK-MEL-28 melanoma", "value": 2.07, "unit": "µM"}, {"measurement": "GI50", "setting": "SNB-75 CNS", "value": 202, "unit": "nM"}, {"measurement": "TGI", "setting": "SNB-75 CNS", "value": 2.4, "unit": "µM"}]}
{"smiles": "O=c1oc2ccc(-c3ccc(F)cc3F)cc2c(=O)n1-c1cccc(C(F)(F)F)c1", "values": [{"measurement": "GI50", "setting": "A549 NSCLC", "value": 1750, "unit": "nM"}, {"measurement": "TGI", "setting": "A549 NSCLC", "value": 34.8, "unit": "µM"}, {"measurement": "GI50", "setting": "CCRF-CEM leukemia", "value": 2420, "unit": "nM"}, {"measurement": "TGI", "setting": "CCRF-CEM leukemia", "value": 7.85, "unit": "µM"}, {"measurement": "GI50", "setting": "COLO 205 colon", "value": 10.4, "unit": "µM"}, {"measurement": "TGI", "setting": "COLO 205 colon", "value": 24.7, "unit": "µM"}, {"measurement": "GI50", "setting": "M14 melanoma", "value": 525, "unit": "nM"}, {"measurement": "TGI", "setting": "M14 melanoma", "value": 4.21, "unit": "µM"}, {"measurement": "GI50", "setting": "NCI-H460 lung", "value": 999, "unit": "nM"}, {"measurement": "TGI", "setting": "NCI-H460 lung", "value": 10.3, "unit": "µM"}, {"measurement": "GI50", "setting": "OVCAR-8 ovarian", "value": 2050, "unit": "nM"}, {"measurement": "TGI", "setting": "OVCAR-8 ovarian", "value": "> 100", "unit": "µM"}, {"measurement": "GI50", "setting": "PC-3 prostate", "value": 2040, "unit": "nM"}, {"measurement": "TGI", "setting": "PC-3 prostate", "value": 12.4, "unit": "µM"}, {"measurement": "GI50", "setting": "SF-268 CNS", "value": 1230, "unit": "nM"}, {"measurement": "TGI", "setting": "SF-268 CNS", "value": 8.21, "unit": "µM"}, {"measurement": "GI50", "setting": "SK-MEL-28 melanoma", "value": 756, "unit": "nM"}, {"measurement": "TGI", "setting": "SK-MEL-28 melanoma", "value": 6.56, "unit": "µM"}, {"measurement": "GI50", "setting": "SNB-75 CNS", "value": 1330, "unit": "nM"}, {"measurement": "TGI", "setting": "SNB-75 CNS", "value": 3.78, "unit": "µM"}]}
{"smiles": "CCOc1ccc(/C=C2\\N=C(c3ccc([N+](=O)[O-])cc3)OC2=O)cc1", "values": [{"measurement": "TGI", "setting": "A549 NSCLC", "value": "> 100", "unit": "µM"}, {"measurement": "TGI", "setting": "CCRF-CEM leukemia", "value": "> 100", "unit": "µM"}, {"measurement": "TGI", "setting": "COLO 205 colon", "value": "> 100", "unit": "µM"}, {"measurement": "TGI", "setting": "M14 melanoma", "value": "> 100", "unit": "µM"}, {"measurement": "TGI", "setting": "NCI-H460 lung", "value": "> 100", "unit": "µM"}, {"measurement": "TGI", "setting": "OVCAR-8 ovarian", "value": "> 100", "unit": "µM"}, {"measurement": "TGI", "setting": "PC-3 prostate", "value": "> 100", "unit": "µM"}, {"measurement": "TGI", "setting": "SF-268 CNS", "value": "> 100", "unit": "µM"}, {"measurement": "TGI", "setting": "SK-MEL-28 melanoma", "value": "> 100", "unit": "µM"}, {"measurement": "TGI", "setting": "SNB-75 CNS", "value": "> 100", "unit": "µM"}]}
{"smiles": "S=c1[nH]c(=S)c2cc3ccccc3nc2[nH]1", "values": [{"measurement": "GI50", "setting": "A549 NSCLC", "value": "> 100000", "unit": "nM"}, {"measurement": "TGI", "setting": "A549 NSCLC", "value": "> 100", "unit": "µM"}, {"measurement": "GI50", "setting": "CCRF-CEM leukemia", "value": 5210, "unit": "nM"}, {"measurement": "TGI", "setting": "CCRF-CEM leukemia", "value": "> 100", "unit": "µM"}, {"measurement": "GI50", "setting": "COLO 205 colon", "value": 20.3, "unit": "µM"}, {"measurement": "TGI", "setting": "COLO 205 colon", "value": "> 100", "unit": "µM"}, {"measurement": "GI50", "setting": "M14 melanoma", "value": "> 100000", "unit": "nM"}, {"measurement": "TGI", "setting": "M14 melanoma", "value": "> 100", "unit": "µM"}, {"measurement": "GI50", "setting": "NCI-H460 lung", "value": 73200, "unit": "nM"}, {"measurement": "TGI", "setting": "NCI-H460 lung", "value": "> 100", "unit": "µM"}, {"measurement": "GI50", "setting": "OVCAR-8 ovarian", "value": "> 100000", "unit": "nM"}, {"measurement": "TGI", "setting": "OVCAR-8 ovarian", "value": "> 100", "unit": "µM"}, {"measurement": "GI50", "setting": "PC-3 prostate", "value": 4740, "unit": "nM"}, {"measurement": "TGI", "setting": "PC-3 prostate", "value": "> 100", "unit": "µM"}, {"measurement": "GI50", "setting": "SF-268 CNS", "value": 39400, "unit": "nM"}, {"measurement": "TGI", "setting": "SF-268 CNS", "value": "> 100", "unit": "µM"}, {"measurement": "GI50", "setting": "SK-MEL-28 melanoma", "value": "> 100000", "unit": "nM"}, {"measurement": "TGI", "setting": "SK-MEL-28 melanoma", "value": "> 100", "unit": "µM"}, {"measurement": "GI50", "setting": "SNB-75 CNS", "value": "> 100000", "unit": "nM"}, {"measurement": "TGI", "setting": "SNB-75 CNS", "value": "> 100", "unit": "µM"}]}
{"smiles": "COc1ccc2nc3ccccc3c(NCc3ccc(F)cc3)c2c1", "values": [{"measurement": "GI50", "setting": "A549 NSCLC", "value": 1990, "unit": "nM"}, {"measurement": "TGI", "setting": "A549 NSCLC", "value": 9.89, "unit": "µM"}, {"measurement": "GI50", "setting": "CCRF-CEM leukemia", "value": 2060, "unit": "nM"}, {"measurement": "TGI", "setting": "CCRF-CEM leukemia", "value": 23.4, "unit": "µM"}, {"measurement": "GI50", "setting": "COLO 205 colon", "value": 1.11, "unit": "µM"}, {"measurement": "TGI", "setting": "COLO 205 colon", "value": 2.78, "unit": "µM"}, {"measurement": "GI50", "setting": "M14 melanoma", "value": 2230, "unit": "nM"}, {"measurement": "TGI", "setting": "M14 melanoma", "value": 8.18, "unit": "µM"}, {"measurement": "GI50", "setting": "NCI-H460 lung", "value": 1780, "unit": "nM"}, {"measurement": "TGI", "setting": "NCI-H460 lung", "value": 6.18, "unit": "µM"}, {"measurement": "GI50", "setting": "OVCAR-8 ovarian", "value": 2000, "unit": "nM"}, {"measurement": "TGI", "setting": "OVCAR-8 ovarian", "value": 13.6, "unit": "µM"}, {"measurement": "GI50", "setting": "PC-3 prostate", "value": 1960, "unit": "nM"}, {"measurement": "TGI", "setting": "PC-3 prostate", "value": 8.01, "unit": "µM"}, {"measurement": "GI50", "setting": "SF-268 CNS", "value": 2200, "unit": "nM"}, {"measurement": "TGI", "setting": "SF-268 CNS", "value": 8.71, "unit": "µM"}, {"measurement": "GI50", "setting": "SK-MEL-28 melanoma", "value": 2900, "unit": "nM"}, {"measurement": "TGI", "setting": "SK-MEL-28 melanoma", "value": 9.27, "unit": "µM"}, {"measurement": "GI50", "setting": "SNB-75 CNS", "value": 2460, "unit": "nM"}, {"measurement": "TGI", "setting": "SNB-75 CNS", "value": 9.2, "unit": "µM"}]}
{"smiles": "COc1cc(C(=O)N2CCN(C(=O)c3cc(OC)c(OC)c(OC)c3)C2=S)cc(OC)c1OC", "values": [{"measurement": "GI50", "setting": "A549 NSCLC", "value": 19900, "unit": "nM"}, {"measurement": "TGI", "setting": "A549 NSCLC", "value": 56.7, "unit": "µM"}, {"measurement": "GI50", "setting": "CCRF-CEM leukemia", "value": 12200, "unit": "nM"}, {"measurement": "TGI", "setting": "CCRF-CEM leukemia", "value": 34.1, "unit": "µM"}, {"measurement": "GI50", "setting": "COLO 205 colon", "value": 19.4, "unit": "µM"}, {"measurement": "TGI", "setting": "COLO 205 colon", "value": 40.4, "unit": "µM"}, {"measurement": "GI50", "setting": "M14 melanoma", "value": 16800, "unit": "nM"}, {"measurement": "TGI", "setting": "M14 melanoma", "value": 34, "unit": "µM"}, {"measurement": "GI50", "setting": "NCI-H460 lung", "value": 27200, "unit": "nM"}, {"measurement": "TGI", "setting": "NCI-H460 lung", "value": 73.6, "unit": "µM"}, {"measurement": "GI50", "setting": "OVCAR-8 ovarian", "value": 21900, "unit": "nM"}, {"measurement": "TGI", "setting": "OVCAR-8 ovarian", "value": 45.9, "unit": "µM"}, {"measurement": "GI50", "setting": "PC-3 prostate", "value": 15000, "unit": "nM"}, {"measurement": "TGI", "setting": "PC-3 prostate", "value": 32.2, "unit": "µM"}, {"measurement": "GI50", "setting": "SF-268 CNS", "value": 11500, "unit": "nM"}, {"measurement": "TGI", "setting": "SF-268 CNS", "value": 26.1, "unit": "µM"}, {"measurement": "GI50", "setting": "SK-MEL-28 melanoma", "value": 17200, "unit": "nM"}, {"measurement": "TGI", "setting": "SK-MEL-28 melanoma", "value": 35.5, "unit": "µM"}, {"measurement": "GI50", "setting": "SNB-75 CNS", "value": 7100, "unit": "nM"}, {"measurement": "TGI", "setting": "SNB-75 CNS", "value": 21.6, "unit": "µM"}]}
